Where two headings read alike, the source gives them in different places.
Tests used:
[1] = test system: HeyA8 ovarian cancer cells; assay type: cell-based
Description: Cell transit times were determined in accordance with the approach described above. […] In the testing, Phosphate Buffered Saline (PBS) suspended HeyA8 ovarian cancer cells were driven through the device using a pressure pump controller (Fluigent MFCS-EZ) at 80 mbar. Three suspensions of cells with varying stiffness were prepared. The first sample was exposed to 1 μM Latrunculin A, abbreviated as LatA, (Sigma-Aldrich), an Actin polymerization inhibitor, for 60 mins at 37° C. to reduce the cell stiffness. The second sample was left untreated. […] In operation, the sensor network 620 was driven with an 500 kHz AC signal and the electrical sensor data from the chip was recorded using a lock-in-amplifier (Zurich Instruments HF2LI) and sampled into a computer. The cell size and the transit time were both measured from the sensor signal peak amplitude and the time delay between the code waveforms corresponding to sensor pairs, respectively.

[2] = test system: MDA-MB-231 (human mammary adenocarcinoma) cells; assay type: cell-based
Description: For each population in our experiments, we used the computed sensor signal amplitude and constriction transit time as measures of the cell size and its stiffness, respectively (see FIGS. 10A-10C).
Because the data on different cell populations were acquired under the same driving pressure and electrical excitation, we could directly compare the characterization results (see FIG. 10D).
For the single frequency device, two different sample of MDA-MB-231 cells were treated with Latrunculin A (Sigma-Aldrich; St. Louis, MO) and formaldehyde (Sigma-Aldrich; St. Louis, MO) and suspended in Phosphate Buffered Saline (PBS). […] Prior to experiments, the cells were trypsinized for two minutes, pelleted, resuspended in PBS and mixed gently to dissociate cell clusters that may have formed. Finally, the suspension was diluted with PBS to a cell concentration of 1.5×10^6 cells/mL. For the LatA exposure, 100 μg of LatA in lyophilized powder form was reconstituted in dimethyl sulfoxide (DMSO), then diluted in PBS to form a 5.9 nM stock solution. The trypsinized and pelleted MDA-MB-231 cells were mixed with 1 mL of 1 nM LatA and incubated at 37° C. for 60 mins. The cells were pelleted once more and resuspended in PBS. […] The trypsinized and pelleted MDA-MB-231 cells were mixed with diluted 4% PFA and incubated at 37° C. for 10 mins. The cells were pelleted once more and resuspended in PBS.
During the above-described experiment, the cell sample was loaded into a sealed 10 mL laboratory tube and pneumatically driven through the device using a software-controlled pressure regulator (MFCSEZ, Fluigent). The driving pressure was 100 mbar for both single-frequency and multi-frequency devices. In the case of the single-frequency device, the electrical networks were excited using a 800 mVpp, 500 kHz sinusoidal signal generated by the lock-in amplifier (HF2LI, Zurich Instruments). For the multi-frequency device, the 500 kHz and 900 kHz sine signals were generated by the lock-in amplifier, whereas the 1300 kHz signal was obtained using a waveform generator (33612A, Keysight), all at 800 mVpp.

C/C1=C/C(=O)O[C@@H]2C[C@@H](CC[C@H](C)/C=C\C=C\CC1)O[C@@](O)([C@@H]1CSC(=O)N1)C2 [LatA, Latrunculin A]
transit time of the untreated cells longer than that of the LatA treated cells, on average ([1]; HeyA8 cells in PBS, 1 μM Latrunculin A, 60 mins at 37° C., driven at 80 mbar): 34% | less constriction transit time than untreated cells, on average ([2]; MDA-MB-231, 1 nM LatA 60 mins at 37° C., 100 mbar): 8.9% | average constriction transit time of treated cells ([2]; MDA-MB-231, 100 mbar, 1.5×10^6 cells/mL, LatA 1 nM 60 mins 37° C., fixation with diluted 4% PFA 10 mins 37° C.): 42.35 ms

C=O [Formaldehyde]
longer transit time of treated cells compared to the untreated cells [1]: 36% | average constriction transit time of treated cells [2]: 54.01 ms
